Structures can show the parent of a compound that is named as a salt. Where two headings read alike, the source gives them in different places.
B1: BDNF: brain-derived neurotrophic factor, a protein neurotrophic factor (protein, UniProt P23560 19-247, looked up)
Neurotrophic factor BDNF …: APMKEANIRGQGGLAYPGVRTHGTLESVNGPKAGSRGLTSLADTFEHVIEELLDEDQKVRPNEENNKDADLYTSRVMLSSQVPLEPPLLFLLEEYKNYLDAANMSMRVRRHSDPARRGELSVCDSISEWVTAADKKTAVDMSGGTVTVLEKVPVSKGQLKQYFYETKCNPMGYTKEGCRGIDKRHWNSQCRTTQSYVRALTMDSKKRIGWRFIRIDTSCVCTLTIKRGR
B2: NT-3: neurotrophic factor in the NGF family of neurotrophins (protein, UniProt P20783 139-257, looked up)
Neurotrophin-3: YAEHKSHRGEYSVCDSESLWVTDKSSAIDIRGHQVTVLGEIKTGNSPVKQYFYETRCKEARPVKNGCRGIDDKHWNSQCKTSQTYVRALTSENNKLVGWRWIRIDTSCVCALSRKIGRT
B3: NT-4: neurotrophic factor in the NGF family of neurotrophins (protein, UniProt P34130 81-210, looked up)
Neurotrophin-4: GVSETAPASRRGELAVCDAVSGWVTDRRTAVDLRGREVEVLGEVPAAGGSPLRQYFFETRCKADNAEEGGPGAGGGGCRGVDRRHWVSECKAKQSYVRALTADAQGRVGWRWIRIDTACVCTLLSRTGRA

How the values were obtained:
[1] = administered topically as a solution; cited from earlier work
[2] = eye drops, cited from earlier work
[3] = Release of timolol maleate in vitro from microspheres; type: physicochemical; conditions: 20% w/w timolol maleate to PLGA; AOT 147 mM in first emulsion step, or Span 20 in its place
Method: In 1.5 ml eppendorf tubes, 10 mg of timolol containing or blank microparticles were reconstituted with 1 ml of phosphate buffered saline (PBS). Samples were prepared in triplicate. The samples were incubated at 37° C. on a labquake rotating shaker (Barnstead/Thermolyne; Dubuque, Iowa, USA). At specific time points (1, 3, 5, and 8 hours; 1, 2, 3, 5, and 7 days; and once every 7 days thereafter until no pellets remained), the samples were centrifuged and the supernatant collected. 1 ml of PBS was added to the replace the withdrawn supernatant and the microparticles were resuspended and returned to the shaker. Supernatants for each of the sets of microspheres was frozen and stored at −80° C. for subsequent analysis using UV spectroscopy at 293 nm.
The drug loading was 20% weight of timolol maleate to weight of polymer. The particles were stored in deionized water at 37° C. Following centrifugation at predetermined time points, the supernatant was extracted and timolol maleate content measured. FIG. 3 depicts the same values expressed as a percentage of the loading values in FIG. 1.

[4] = tested on: adult rat retinal ganglion cells; conditions: cited from earlier work; for delay of onset of axotomy-induced RGC death: intraocular administration at the time of axotomy; for effect on survival of RGCs after axotomy: intraocular administration

| Molecule | delay of onset of axotomy-induced RGC death [4] | effect on survival of RGCs after axotomy [4] | also measured |
| --- | --- | --- | --- |
| CC(C)(C)NC[C@H](O)COc1nsnc1N1CCOCC1 [Timolol maleate] |  |  | average IOP reduction [1]: 20-35%; systemic absorption of the administered drug [2]: approximately 80%; topically administered drug reaching the aqueous humor [2]: less than 1%; systemic absorption of the administered drug ([2]; listed as timolol maleate): ~80% |
| Span 20 |  |  | effect of added surfactant on loading or release of timolol maleate [3]: no significant effect |
| B1 | approximately 3 days | neuroprotective effect |  |
| B2 |  | did not modify the survival of RGCs |  |
| B3 | approximately 3 days | neuroprotective effect |  |

Source: patent publication US8492334B2, “Sustained intraocular delivery of drugs from biodegradable polymeric microparticles” (Yale University, priority 2007, dated 2013)
